Test results published in ChEMBL document CHEMBL1133048, “A QSAR study investigating the effect of L-alanine ester variation on the anti-HIV activity of some phosphoramidate derivatives of d4T” (2000).
Blank lines part the entries; values can stand above or below the compound they belong to.

Experiments:
CCRF-CEM [1] = test: Cytotoxic concentration required to inhibit CEM cell proliferation by 50%; assay type: functional; settings: Homo sapiens
CCRF-CEM [2] = test: Effective concentration required to inhibit 50% of HIV-2 induced giant cell formation in CEM cell cultures; assay type: functional, Homo sapiens
CCRF-CEM [3] = test: Effective concentration required to inhibit 50% of HIV-1 induced giant cell formation in CEM cell cultures; assay type: functional, Homo sapiens

Log 1/EC50 (CCRF-CEM [2]): 1.13
Log 1/EC50 (CCRF-CEM [3]): 1.13
Compound: COC(=O)C(C)NP(=O)(OC[C@@H]1C=C[C@H](n2cc(C)c(=O)[nH]c2=O)O1)Oc1ccccc1 (stereo partly drawn)
CC50 (CCRF-CEM [1]): 100 µM

Log 1/EC50 (CCRF-CEM [2]): 1.26
Log 1/EC50 (CCRF-CEM [3]): 1.22
Compound: CCCCCCOC(=O)C(C)NP(=O)(OCC1C=CC(n2cc(C)c(=O)[nH]c2=O)O1)Oc1ccccc1 (stereo not drawn)
CC50 (CCRF-CEM [1]): 48 µM

Log 1/EC50 (CCRF-CEM [2]): -0.041
Log 1/EC50 (CCRF-CEM [3]): 0.071
Compound: Cc1cn(C2C=CC(COP(=O)(NC(C)C(=O)OC(C)(C)C)Oc3ccccc3)O2)c(=O)[nH]c1=O (stereo not drawn)
CC50 (CCRF-CEM [1]): 250 µM

Log 1/EC50 (CCRF-CEM [2]): 1.35
Log 1/EC50 (CCRF-CEM [3]): 1.3
Compound: Cc1cn(C2C=CC(COP(=O)(NC(C)C(=O)OCC(C)(C)C)Oc3ccccc3)O2)c(=O)[nH]c1=O (stereo not drawn)
CC50 (CCRF-CEM [1]): 43.5 µM

Log 1/EC50 (CCRF-CEM [2]): 1.1
Log 1/EC50 (CCRF-CEM [3]): 1.35
Compound: CCCCCOC(=O)C(C)NP(=O)(OCC1C=CC(n2cc(C)c(=O)[nH]c2=O)O1)Oc1ccccc1 (stereo not drawn)
CC50 (CCRF-CEM [1]): 40.5 µM

Log 1/EC50 (CCRF-CEM [2]): 1.1
Log 1/EC50 (CCRF-CEM [3]): 1.33
Compound: CCCOC(=O)C(C)NP(=O)(OCC1C=CC(n2cc(C)c(=O)[nH]c2=O)O1)Oc1ccccc1 (stereo not drawn)
CC50 (CCRF-CEM [1]): 40 µM

Log 1/EC50 (CCRF-CEM [2]): 1.16
Log 1/EC50 (CCRF-CEM [3]): 1
Compound: CCOC(=O)C(C)NP(=O)(OCC1C=CC(n2cc(C)c(=O)[nH]c2=O)O1)Oc1ccccc1 (stereo not drawn)
CC50 (CCRF-CEM [1]): 55 µM

Further lines, the compound ahead of its results:

Compound: Cc1cn(C2C=CC(COP(=O)(NC(C)C(=O)Oc3ccccc3)Oc3ccccc3)O2)c(=O)[nH]c1=O (stereo not drawn)
Log 1/EC50 (CCRF-CEM [2]): 1.1
Log 1/EC50 (CCRF-CEM [3]): 1.6

Compound: Cc1cn(C2C=CC(COP(=O)(NC(C)C(=O)OCC3CCCCC3)Oc3ccccc3)O2)c(=O)[nH]c1=O (stereo not drawn)
CC50 (CCRF-CEM [1]): 12.1 µM
Log 1/EC50 (CCRF-CEM [3]): 1.4

Compound: Cc1cn(C2C=CC(COP(=O)(NC(C)C(=O)OC3CCCCC3)Oc3ccccc3)O2)c(=O)[nH]c1=O (stereo not drawn)
CC50 (CCRF-CEM [1]): 51.4 µM
Log 1/EC50 (CCRF-CEM [2]): 1.13
Log 1/EC50 (CCRF-CEM [3]): 1.19

Compound: Cc1cn(C2C=CC(COP(=O)(NC(C)C(=O)OCc3cccc4ccccc34)Oc3ccccc3)O2)c(=O)[nH]c1=O (stereo not drawn)
CC50 (CCRF-CEM [1]): 21.6 µM
Log 1/EC50 (CCRF-CEM [2]): 1.22
Log 1/EC50 (CCRF-CEM [3]): 1.52

Compound: CCCCOC(=O)C(C)NP(=O)(OCC1C=CC(n2cc(C)c(=O)[nH]c2=O)O1)Oc1ccccc1 (stereo not drawn)
CC50 (CCRF-CEM [1]): 60 µM

Compound: Cc1cn(C2C=CC(COP(=O)(NC(C)C(=O)OCCc3ccccc3)Oc3ccccc3)O2)c(=O)[nH]c1=O (stereo not drawn)
CC50 (CCRF-CEM [1]): 250 µM
Log 1/EC50 (CCRF-CEM [2]): 0.155
Log 1/EC50 (CCRF-CEM [3]): 0.071

Compound: Cc1cn(C2C=CC(COP(=O)(NC(C)C(=O)OCCCc3ccccc3)Oc3ccccc3)O2)c(=O)[nH]c1=O (stereo not drawn)
CC50 (CCRF-CEM [1]): 250 µM
Log 1/EC50 (CCRF-CEM [2]): -0.217
Log 1/EC50 (CCRF-CEM [3]): 0
